# Data published in publication PMC10290391, “Targeted degradation of ⍺-synuclein aggregates in Parkinson’s disease using the AUTOTAC technology” (Molecular Neurodegeneration, 2023).
# Where “and” joins values, the source holds several entries; their conditions need not be identical. Identical values can stand only once. Entries after “also recorded” stand apart in the source; their conditions may differ.
# Key:
# α-syn aggregates = assay: Triton X-100 fractionation assay in SH-SY5Y α-syn A53T cells transduced with α-syn PFFs; type: cell-based, human
# Protocol: Recombinant human α-syn (1–140) were obtained from NKMAX (SNA2001L). In vitro fibrillization was performed by diluting recombinant α-syn monomers to 1 mg/mL in sterile PBS, then incubating at 37 °C with constant agitation at 1,000 rpm for seven days. The fibrillization was verified by thioflavin T and sedimentation assays. The ability to form phospho-α-syn (S129) was also assessed by immunocytochemistry. In addition, to determine whether the generated PFFs act as seeds to accumulate endogenous α-syn, an adenovirus that expresses c-Myc-His-tagged human α-syn (gifted from lab of S.J.L) was used to infect cultured cells at an MOI of 10, followed by a fractionation assay. The administration of PFFs into 293A cells was done with protein delivery reagent (BioPORTER QuikEase Protein Delivery Kit, Sigma) following the provider’s instruction. The mouse α-syn PFFs were obtained from StressMarq (SPR-324). […]
# For the separation of Triton X-100 soluble and insoluble fractions for monitoring α-syn, cells were washed with PBS and lysed in Triton X-100 buffer (50 mM Tris / 150 mM NaCl / 100 mM EDTA / 1% Triton X-100, pH 7.6) containing protease and phosphatase inhibitors for 30 min on ice. […] Immunoreactive bands were detected using ECL reagents (Thermo Fisher Scientific, 32,106). […] Densitometry of developed bands was analyzed with ImageJ (NIH, Bethesda).
# [1] = test system: high molecular weight α-syn aggregates; assay: Dot blot / filter trap assay for α-syn aggregates in differentiated SH-SY5Y α-syn A53T cells; type: cell-based, human; details: 100 nM, 24 h; 450 nm filter
# Protocol: Differentiated SH-SY5Y α-syn A53T cells were treated with 2 μg/ml of a-syn PFFs, and after 24 h cells were treated with 100 nM of ATC161 for 24 h. The cells were lysed in RIPA buffer for 30 min on ice and then centrifuged at 13,000 rpm for 20 min at 4 ℃. The supernatants were aspirated and transferred into a new tube kept on ice. Protein concentration was determined by a BCA assay. The filter trap assay was performed with 5 μg of total protein diluted in 100 μL of lysate. A nitrocellulose membrane (pore size: 0.45 μm) was placed on the filter trap apparatus (96-well Bio-Dot®). Lysates were loaded and allowed to pass through the membrane under vacuum. Aggregated α-syn levels were determined by immunoblotting using an anti-α-syn aggregate antibody [MJFF-14–6-4–2] (1:2000; Abcam, ab209538).
# [2] = Brain penetration of ATC161 in TauP301L-BiFC AD mouse model; type: in vivo, mice; details: after 4 h of oral administration
# Protocol: Supplementary file 13024_2023_630_MOESM1_ESM.eps: Additional file 1: Supplementary figure 1. Drug profiles of ATL and Autotac compounds. A, drug profiles of ATL compounds. Tissue concentrations and oral bioavailability were measured in ICR male mice upon 5 mg/kg oral administration of each ATL compound. B, structures of ATC161~164. C, Pharmacokinetic study of ATC161 conducted in male ICR mice otherwise indicated. M.W. represents molecular weight. The plasma exposure and the half-life were determined upon either POor IPATC161 administration. The drug tissue exposure was determined in Tau301L BiFC mice. IV refers to intravenous injection.
# [3] = test system: α-syn PFF-injected mouse model; type: in vivo; details: 10 mg/kg oral
# Protocol: Mice were anesthetized and perfused with PBS and 4% paraformaldehyde. Brains were sectioned at 30 μm thickness by vibratome (Leica). Free-floating sections were blocked with PBS containing 5% serum and 0.3% Triton X-100 for 1 h. The sections were then incubated with an anti-tyrosine hydroxylase (TH) antibody (1:5,000, Sigma, T1299) overnight at 4℃. The sections were incubated with biotinylated secondary antibody for 1 h at room temperature. The signal amplification was achieved by the ABC kit (Vector) followed by development with DAB (Vector). TH^+ optical density was measured in three brain sections per animal. Images of the ipsilateral and contralateral striatal area were obtained using an Axio scan Z1 slide scanner (Zeiss). Images were converted to grayscale via Image J, and the intensity was analyzed. Normalized values across the sections were used to compare the relative TH^+ optical density.
# Intrastriatal injection of α-syn fibrils was performed in C57BL6/J male mice at 8 weeks of age. 5 µg of α-syn fibrils were sonicated and injected into the dorsal striata in mice at the empirically derived coordinates: 1.0 mm anterior and 1.5 mm lateral to the Bregma, and 3.0 mm ventral relative to the skull in the course of 20 min. Scalp incisions were closed by suture. […]
# Brain sections were cut into 30 µm on a freezing microtome, and stored in tissue storage solution at -20 °C. Sections were washed with PBS and incubated with blocking buffer (2% normal goat serum, 1% BSA, 1% Triton X-100, and Tween-20 in PBS) for 1 h at room temperature. After washing with PBS, sections were incubated with primary antibodies (pS129-α-syn, GFAP) overnight at 4 °C, followed by secondary Goat anti-mouse AlexaFluor488 and Goat anti-rabbit AlexaFluor555 for 1 h at room temperature. Images were processed by Axio Scan Z1 (Carl Zeiss). In order to quantify the number of neurons in the PFF-injected striatum, the brain sections were stained with 0.1% crystal violet solution containing 0.1% acetic acid for 1 min at 50 ℃ and then rinsed in distilled water. Sections were dehydrated in 95% and 100% alcohol and mounted on slides.
# The behavioral tests were performed according to IACUC approval (AUTOTAC Bio Inc., ATB-2107–06-1). The previously generated PFF-injected mouse model was used. For the forelimb grip strength test, a grip strength meter (Bioseb, BIO-GS3) was used. Three consecutive measurements were done for each mouse, and the average was calculated. For the motor coordination test, a rotarod (Bioseb, BX-ROD) was used. Each trial consisted of three attempts.
compound,measurement,setting,value
"Fc1ccc(COc2cccc(CNCCOCCOCCNc3cccc(-c4cc(-c5ccc6c(c5)OCO6)n[nH]4)c3)c2)cc1 [ATC161, 3-(3-(benzo[d][1,3]dioxol-5-yl)-1H-pyrazol-5-yl)-N-(2-(2-(2-((3-((4-fluorobenzyl)oxy)benzyl)amino)ethoxy)ethoxy)ethyl)aniline]",DC50,"α-syn aggregates; Triton X-100 insoluble fraction, read-out: half degradation concentration (DC50) of α-syn aggregates",~100 nM and 100 nM
same,degradation of monomeric α-syn,α-syn aggregates; soluble fraction,No apparent degradation; also recorded: no such degradation was observed
same,degradation of high molecular weight α-syn aggregates,[1],induced the degradation of high molecular weight α-syn aggregates
same,Kp at 4 h,[2],~0.1
same,"neuronal cell death (Nissl staining, injection site)",[3],did not induce neuronal cell death
same,increase in time on rotarod,"[3]; 5 times per week, 16 weeks",59%
same,number of GFAP+ signals in striata near endopiriform nucleus,[3]; 9 weeks (45 treatments),reduced the number of GFAP^+ signals
same,TH+ fiber level in ipsilateral striatum,[3]; 16 weeks,reversed the TH^+ level to the extent of control group
same,number of p-α-syn+ aggregates in the contralateral striata,[3]; 16 weeks,attenuated the number of p-α-syn^+ aggregates
same,peak grip force of fore- and hindlimbs,[3]; 16 weeks,increased the peak grip force of fore- and hindlimbs to the extent of control group
same,number of p-α-syn+ aggregates in the injection sites,"[3]; 16 weeks, vs vehicle",reduced the number of p-α-syn^+ aggregates
